This test in a line: immunosuppressive activity compared with rapamycin (no test described). The note with it: relative to rapamycin; qualitative statement, no method or data given.

For the compound `COC1CC(CC(C)C2CC(=O)C(C)C=C(C)C(O)CC(=O)C(C)CC(C)C=CC=CC=C(C)C(O)CC3CCC(C)C(O)(O3)C(=O)C(=O)N3CCCCC3C(=O)O2)CCC1O` (stereo not shown) [16-desmethyl-27-desmethoxyrapamycin], the immunosuppressive activity entry is “lower immunosuppressive activity than rapamycin”.

Source of the values: patent US6670168B1, “Recombinant Streptomyces hygroscopicus host cells that produce 17-desmethylrapamycin” (Kosan Bioscience, Inc., priority 1999, dated 2003).
